Molecules are shown by their SMILES.

In data set [1] the test system is human skin fibroblasts containing the human elastin promoter linked to a luciferase reporter gene construct. Nature of the data set: Neutral Red Cytotoxicity/Phototoxicity Assay. How it is done: Immortalized human skin fibroblasts containing the human elastin promoter linked to a luciferase reporter gene construct were seeded in 96-well plates at a density of 7,500 cells per well (doubling time ˜30 hours). Cells were grown in 75 cm^2 tissue culture flasks in MEM (without phenol red) supplemented with 10% FBS, 25 mM HEPES, 2 mM l-glutamine, 1% nonessential amino acids, 50 μg/mL Gentamycin, and 5 μg/mL Zeocin. Cell cultures were incubated in a 37° C. incubator (containing 5% CO2) when not being manipulated or irradiated. Cell cultures were washed with Phosphate Buffered Saline (PBS) with Ca^++ and Mg^++ when media or compounds were removed and before ultraviolet radiation (UVR).
Gluconolactone was prepared in PBS. Concentrations of 0.5, 1.0, 2.5, 5.0, 7.5, 10.0, 12.5, and 25% (w/v) were prepared and adjusted to a pH of 7.2. Gluconolactone was incubated 15 minutes prior to and in contact with cell cultures during UV-irradiation.
4-Hydroxy-tempo (tempol) was prepared in PBS. Concentrations of tempol of 10, 25, 50, 62.5, 100, 125, 250, and 500 mM were prepared and adjusted to a pH of 7.2. Tempol was incubated 15 minutes prior to and in contact with cell cultures during UV-irradiation.
Cell cultures were UV-irradiated with Westinghouse 40-Watt fluorescent sunlamps (FS-40 lamps) with doses of either 2 or 5 mJ/cm^2, based on a PMA2100 radiometer (Solar light Company, Philadelphia, Pa.) equipped with a PMA2101 erythema weighted detector.
Fifteen hours after UV-irradiation with the FS-40 lamps, cell cultures were washed with PBS and Neutral Red Medium (Neutral Red dye+supplemented MEM) was added for a 3 hours (in 37° C. incubators). After the incubation period, cells are washed with PBS and the Neutral Red Desorb solution (50% Ethanol, 49% distilled water, 1% Glacial Acetic Acid) was added. Plates are shaken for 10 minutes at 500 rpm and then the absorption was read at 540 nm using THERMOmax plate reader and SOFTmax PRO software.

Data set [2] concerns human elastin promoter linked to a luciferase reporter gene construct in human skin fibroblasts. Kind of data set: human elastin promoter/luciferase assay (UV-induced promoter induction). It is filed as cell-based. How it is done: Thus, gluconolactone protects against UV-induced gene induction in cells containing the human elastin promoter/luciferase construct. […] The ED50 for cell cultures with tempol but not receiving any ultraviolet radiaiton was approximately 100 mM.
Gluconolactone was prepared in PBS.
4-Hydroxy-tempo (tempol) was prepared in PBS.

Take `CC1(C)CC(O)CC(C)(C)N1[O]` [tempol, 4-Hydroxy-tempo]: the protection against toxicity entry is recorded as “over 50%” in data set [1] (neutral red assay, increasing ultraviolet doses) and “over 50%” in data set [2] (human elastin promoter/luciferase assay, increasing ultraviolet doses). Besides, the “ED50 for cell cultures” value is reported as “approximately 100 mM” in data set [1] (not receiving any ultraviolet radiation), “approximately 150 mM” in data set [1] (ultraviolet radiation dose 2 mJ/cm^2) and roughly 250 mM in data set [1] (ultraviolet radiation dose 5 mJ/cm^2).

For the compound `O=C1O[C@H](CO)[C@@H](O)[C@H](O)[C@H]1O` [Glucolactone, Gluconolactone], the phototoxicity or cytotoxicity entry in data set [1] is given as “did not demonstrate significant phototoxicity or cytotoxicity”. In addition, the ED50 for phototoxicity result in data set [1] (human, pH 7.2) was “approximately 102 g/L”. Further, the “protection against UV-induced promoter induction” value in data set [2] (human elastin promoter/luciferase fibroblasts, UV-irradiated) was “approximately 50%”.
